Assay results published in US20030175678A1, “Methods for identifying genes regulating desired cell phenotypes” (priority 2001, published 2003).

Key:
Type in all cases: cell-based
[1] = system: C. fascicularis suspension culture; experiment: Differential induction of EGCG in Crassula fascicularis suspension culture (HPLC); settings: B49 medium, treated on day 7 following subculture
Method: Differential induction of catechins in the C. fascicularis suspension culture was performed in 500 mL conical flasks containing 190 mL of either growth medium B105 (modified Gamborg's B5 medium containing 2,4-D (1 mg/L), kinetin (0.1 mg/L), coconut water (100 mL/L), glutamine (10 mM), and 3% sucrose) or a secondary metabolite production medium B49 (Gamborg's B5, 5% sucrose, no hormones), inoculated with 70 mL of 14 day old suspension culture. Cultures were grown for 14 days before harvest and processing. Further cultures grown on production medium B49 were treated using one of each of the following protocols:
(4) A 40 mL aliquot of a day 0 suspension growing on B105 medium was transferred to a 100 mL flask. On day 3, a sterile solution of 5-azacytidine (5-AC) in water was added for a final concentration of 3×10^−5 M, and the resultant mixture was incubated for 11 days. At this point the 40 mL 5-AC-treated culture was subcultured twice before inoculating 190 mL B49 production medium in a 500 mL flask with 70 mL of day 14 suspension. The culture was then treated further according to protocol (2). […]
Lyophilized biomass from 100 mL plant cell culture was extracted three times with 10 mL of boiling aqueous 0.2 M NaH2PO4 solution (total 30 mL). The combined, cooled, extracts were extracted with EtOAc (2×30 mL). The combined EtOAc extracts were then dried under a stream of nitrogen. The samples were dissolved in 50% aqueous acetonitrile at a concentration of 1.0 mg/mL; a 0.1 mL aliquot was transferred into a 0.25 mL glass insert to a 2 mL HPLC vial. The extraction procedure is scalable according to the initial volume of the plant-cell culture used to generate the biomass.
HPLC analyses of compounds in plant cell culture extracts were performed in two systems. System 1 (S1) utilized a Rainin Dynamax SD-200 pumping system, a Varian Dynamax PDA-2 diode array detector, with a Waters XTerra RP 18 (5 μm, 3.0×150 mm) column. The mobile phase was composed from 0.1% acetic acid in H2O (solvent A) and 0.1% acetic acid in acetonitrile (solvent B), at a flow rate of 0.75 mL/min: after maintaining initial conditions (A:B, 95:5) for one minute post-injection, gradient elution was accomplished in a linear fashion over 30 min (to A:B, 40:60). A total of 10 μL of each sample was injected onto the column and eluates were analyzed at a wavelength of 275 nm. System 2 (S2) utilized API-electrospray-LC-MS: a Hewlett Packard series HP1100 with a Waters Xterra RP18 (3.5 μm, 2.1×100 mm) column was used as the inlet for a Micromass Platform-LC, in the positive-ion mode. […] Compounds of interest were detected at 254 nm and as single-charged species via selected-ion monitoring in the mass spectrometer. […]

[2] = system: C. barkleyi suspension culture; experiment: Differential induction of catechin accumulation in Crassula barkleyi suspension culture; settings: B49 medium, treated seven days after inoculation, sampled for 17 days
Method: Differential induction of catechin derivatives in the C. barkleyi suspension culture was performed in 250 mL conical flasks containing 100 mL of a secondary metabolite production medium B49 (Gamborg's B5, with 5% sucrose, and no hormones), inoculated with 16 mL of 14 day old suspension culture. The cultures were incubated under low light conditions (approximately 30 lux) at 25° C. for seven days after inoculation. Cultures were then treated using one of each of the following protocols (untreated cultures were also maintained as controls):
(2) Autoclaved aqueous 2,4-D (1 mg/L final concentration) was added;
(4) Filter-sterilized aqueous DL-phenylalanine (200 mg/L) was added;
(6) Filter-sterilized aqueous zeatin (10 μM) was added;
(7) Filter-sterilized aqueous 1-aminocyclopropane-1-carboxylic acid (10 mg/L final concentration) was added;
(8) Filter-sterilized 24-epibrassinolide (1 mg/L final concentration) was added;
(9) Incubation at a temperature of 16° C.; or (10) High light regime (approximately 160 lux).
Ten milliliter culture samples were taken at regular intervals for 17 days following the day of subculture to B49 medium. All culture samples were centrifuged for five minutes at 4000 rpm, and the cell residue was freeze-dried. Extraction, sample preparation, and HPLC analysis were performed as described in Example 1.

[3] = system: C. dejecta suspension culture; experiment: Differential induction of catechin accumulation in Crassula dejecta suspension culture; settings: cultures grown on B105, added at day 7
Method: Differential induction of catechin derivatives in the C. dejecta suspension culture was performed in 250 mL conical flasks containing 100 mL of B105 growth medium or 100 mL of a secondary metabolite production medium B49 (Gamborg's B5, with 5% sucrose, and no hormones), inoculated with 40 mL of 21 day old suspension culture. The cultures were incubated under low light conditions (approximately 30 lux) at 25° C. Cultures were treated using one of each of the following protocols:
(1) B105 growth medium (no additions) used as is;
(3) Filter-sterilized aqueous zeatin (10 μM) was added at day 7 to a culture grown on B105 medium;
(4) B49 production medium (no additions) used as is;
(6) Filter-sterilized clofibrate (0.5 mM final concentration) was added at day 7 to a culture grown on B49 medium. Ten milliliters of culture samples were taken at regular intervals for 17 days following the day of subculture to B105 or B49 medium. All culture samples were centrifuged for five minutes at 4000 rpm, and the cell residue was freeze-dried. Extraction, sample preparation, and HPLC analysis were performed as described in Example 1.

Structure (SMILES) | EGCG (mg/gdwt) two days after treatment [1] | catechin biosynthesis and EGCG accumulation [2] | induction of catechin, gallocatechin, and EGCG [3]
O=C(O)c1cc(O)c(O)c(O)c1 [gallic acid] | 82 mg/gdwt |  | 
O.O.O.O.O.O.O.O=S(=O)([O-])[O-].[Fe+2] [FeSO4.7H2O] | 90 mg/gdwt |  | 
O=C(O)COc1ccc(Cl)cc1Cl [2,4-D, 2,4-dichlorophenoxyacetic acid] |  | suppressed catechin biosynthesis | 
CC(C)[C@@H](C)[C@@H](O)[C@H](O)[C@@H](C)[C@H]1CC[C@H]2[C@@H]3COC(=O)[C@H]4C[C@H](O)[C@H](O)C[C@]4(C)[C@H]3CC[C@]12C [24-epibrassinolide] |  | induced catechin biosynthesis and EGCG accumulation | 
C/C(=C\CNc1ncnc2[nH]cnc12)CO [zeatin] |  | induced catechin biosynthesis and EGCG accumulation | induced catechin, gallocatechin, and EGCG
CCOC(=O)C(C)(C)Oc1ccc(Cl)cc1 [Clofibrate] | 89 mg/gdwt |  | 
